{"source": "patent US20240065994A1", "about": "“COMPOSITIONS AND METHODS FOR PREVENTING OR TREATING DISEASES OR DISORDERS ASSOCIATED WITH PROTEIN MISFOLDING” (priority 2020, published 2024)", "key": {"[1]": {"assay": "Effect of BSO on body weight", "type": "in vivo, mice", "details": "15 mM BSO in drinking water for eight weeks, weighed weekly", "from_the_text": "(§1) Animals: C57BL/6-Ins2^Akita/J (Akita) are an excellent model for Mutant-insulin Diabetes of Youth. Akita mice suffer from diabetes due to misfolded proinsulin, as the gene that codes for proinsulin (Ins2) is mutated. […] One male Akita mice was bred to female mice and the progeny were back-crossed to obtain enough number of heterozygous and wild-type male mice. The genotype of the mice was confirmed by using methods described previously. Briefly, the polymerase chain reaction product of the amplicons from the mutated region of the Ins 2 gene were subjected to restriction enzyme digestion and the products of the digestion were separated in agarose gels. Based on the number of fragments that resulted from the digestion, the genotypes of mice were confirmed. Only heterozygous male mice were used in the experiments. After two rounds of breeding, 12 heterozygous Akita and 12 wild-type Akita mice. After reaching 15-weeks of age, mice in each genotype were randomized into two groups of 6 animals each (n=6/group). All mice were given either 0 mM or 15 mM of D,L-Buthionine-(S,R)-sulfoximine (BSO, Toronto Research Chemicals Inc., ON, CA) administered in drinking water. […]\nExperiment 1. […] Body weight was monitored every week.\n(§2) Body weight (see FIG. 1) and food consumption (see FIG. 2) was monitored weekly. […]"}, "[2]": {"assay": "Effect of BSO on food intake", "type": "in vivo, mice", "details": "15 mM BSO in drinking water for eight weeks, measured weekly", "from_the_text": "as §1\nExperiment 2. […] Food intake was measured every week.\nas §2"}, "glutathione": {"test_system": "glutathione", "assay": "Effect of BSO on blood glutathione concentration", "type": "in vivo, mice", "details": "after eight weeks on 15 mM BSO", "from_the_text": "Animals: C57BL/6-Ins2^Akita/J (Akita) are an excellent model for Mutant-insulin Diabetes of Youth. Akita mice suffer from diabetes due to misfolded proinsulin, as the gene that codes for proinsulin (Ins2) is mutated. […] One male Akita mice was bred to female mice and the progeny were back-crossed to obtain enough number of heterozygous and wild-type male mice. The genotype of the mice was confirmed by using methods described previously. Briefly, the polymerase chain reaction product of the amplicons from the mutated region of the Ins 2 gene were subjected to restriction enzyme digestion and the products of the digestion were separated in agarose gels. Based on the number of fragments that resulted from the digestion, the genotypes of mice were confirmed. Only heterozygous male mice were used in the experiments. After two rounds of breeding, 12 heterozygous Akita and 12 wild-type Akita mice. After reaching 15-weeks of age, mice in each genotype were randomized into two groups of 6 animals each (n=6/group). […] Glutathione was determined as described in experimental methods section. […] Glutathione was determined by a colorimetric method based on an enzymatic recycling method using 5,5′-dithiobis-(2-nitrobenzoic acid) as described earlier (Teitze et al). Using a standard curve with known concentrations the glutathione concentrations were determined and expressed as μg/mL blood."}, "Akita mice": {"test_system": "Akita mice", "assay": "Effect of BSO on fasting glucose", "type": "in vivo", "details": "15 mM BSO in drinking water, measured before and 1, 3, 4, 7, 8 weeks after, persisted throughout the study", "from_the_text": "Experimentation was done with Akita mice, which harbor a similar mutation in the proinsulin gene as human patients with MIDY, are used as a laboratory model for MIDY. […] The Akita strain is a monogenic model for phenotypes associated with type 1 diabetes. A spontaneous mutation in the insulin 2 gene leads to incorrect folding of the proinsulin protein producing toxicity in pancreatic beta-cells, reduced beta-cell mass and reduced insulin secretion. As a result, Akita mice suffer with glucose levels that are two to four-fold higher than healthy mice. […] Animals: C57BL/6-Ins2^Akita/J (Akita) are an excellent model for Mutant-insulin Diabetes of Youth. Akita mice suffer from diabetes due to misfolded proinsulin, as the gene that codes for proinsulin (Ins2) is mutated. […] One male Akita mice was bred to female mice and the progeny were back-crossed to obtain enough number of heterozygous and wild-type male mice. The genotype of the mice was confirmed by using methods described previously. […] Fasting glucose was determined using AlphaTrak-2 glucometer. […] Fasting (6 hr) blood glucose was determined from tail clips before starting the mice on BSO and 1, 3, 4, 7, and 8 weeks after treating with BSO. […]"}, "Wild-type and Akita mice [3]": {"test_system": "Wild-type and Akita mice", "assay": "Glucose tolerance test (GTT)", "type": "in vivo", "details": "15 mM BSO, fifth week, 0.85 g/Kg D-glucose i.p., 6 h fast", "from_the_text": "(§3) Animals: C57BL/6-Ins2^Akita/J (Akita) are an excellent model for Mutant-insulin Diabetes of Youth. Akita mice suffer from diabetes due to misfolded proinsulin, as the gene that codes for proinsulin (Ins2) is mutated. […] One male Akita mice was bred to female mice and the progeny were back-crossed to obtain enough number of heterozygous and wild-type male mice. The genotype of the mice was confirmed by using methods described previously. Briefly, the polymerase chain reaction product of the amplicons from the mutated region of the Ins 2 gene were subjected to restriction enzyme digestion and the products of the digestion were separated in agarose gels. Based on the number of fragments that resulted from the digestion, the genotypes of mice were confirmed. Only heterozygous male mice were used in the experiments. After two rounds of breeding, 12 heterozygous Akita and 12 wild-type Akita mice. […] Body weight (see FIG. 1) and food consumption (see FIG. 2) was monitored weekly. […] Mice were intraperitoneally injected with 0.85 g/Kg body weight D-glucose and blood glucose was determined at specified intervals. […] Blood glucose was measured from tail clips using AlphaTrak-2 (Parsipanny, NJ,) glucometer and compatible strips. Blood glucose was measured at 0, 5, 15, 30, 60, 90, 120, 150, 180, and 210 min after injection. […]"}, "Wild-type and Akita mice [4]": {"test_system": "Wild-type and Akita mice", "assay": "Insulin tolerance test (ITT)", "type": "in vivo", "details": "15 mM BSO, third week, 1 U/Kg insulin i.p., 6 h fast", "from_the_text": "as §3, with “1 U/Kg” for “0.85 g/Kg”, “of insulin” for “D-glucose”"}}, "data": [{"smiles": "CCCCS(=N)(=O)CC[C@H](N)C(=O)O", "note": "(mixture of isomers) [BSO, D,L-Buthionine-(S,R)-sulfoximine]", "values": [{"measurement": "effect on body weight", "setting": "[1]; Akita mice", "result": "lack of the effect"}, {"measurement": "effect on body weight", "setting": "[1]; wild-type mice", "result": "lack of the effect"}, {"measurement": "effect on food intake", "setting": "[2]; Akita mice", "result": "does not affect"}, {"measurement": "effect on food intake", "setting": "[2]; wild-type mice", "result": "does not affect"}, {"measurement": "effect on blood glutathione concentration", "setting": "glutathione; Akita mice", "result": "decreased"}, {"measurement": "effect on blood glutathione concentration", "setting": "glutathione; wild-type mice", "result": "decreased"}, {"measurement": "effect on fasting (6 hr) blood glucose", "setting": "Akita mice", "result": "Decrease in glucose levels in Akita was evident within one week"}, {"measurement": "glucose tolerance area under the curve decreased to", "setting": "Wild-type and Akita mice [3]; Akita mice, baseline subtracted", "result": "less than 50%"}, {"measurement": "effect on glucose tolerance area under the curve", "setting": "Wild-type and Akita mice [3]; wild-type mice", "result": "did affect"}, {"measurement": "effect on insulin tolerance area under the curve", "setting": "Wild-type and Akita mice [4]; Akita mice", "result": "No effect"}, {"measurement": "effect on insulin tolerance area under the curve", "setting": "Wild-type and Akita mice [4]; wild-type mice", "result": "No effect"}]}]}
